Earlier results, collected in patent publication US5627202A, “Inhibitors of farnesyl-protein transferase” (Merck & Co., Inc., priority 1996, dated 1997).

Test system: farnesyl-protein transferase
Details: via HMG-CoA reductase inhibition

| SMILES | Indirect inhibition of farnesyl-protein transferase in vivo |
| --- | --- |
| CC[C@H](C)C(=O)O[C@H]1CCC=C2C=C[C@H](C)[C@H](CC[C@@H]3C[C@@H](O)CC(=O)O3)[C@H]21 [compactin] | Indirect inhibition of farnesyl-protein transferase in vivo |
| CC[C@H](C)C(=O)O[C@H]1C[C@@H](C)C=C2C=C[C@H](C)[C@H](CC[C@@H]3C[C@@H](O)CC(=O)O3)[C@H]21 [lovastatin] | Indirect inhibition of farnesyl-protein transferase in vivo |
